Reference: patent US11053204B2, “Pyrimidinyloxy benzene derivatives as herbicides” (FMC Corporation, priority 2015, dated 2021)

Experiments:
Assay type in all cases: in vivo
[1] = test system: barnyardgrass (Echinochloa crus-galli); assay: Test B flooded paddy test, plant response rating; conditions: 250 g ai/ha; Flood; scale of 0 to 100 where 0 is no effect and 100 is complete control; 13 to 15 days
Method in brief: (§1)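 Under a constant 3 cm flood, test compounds went directly into the paddy water. Following 13 to 15 days of greenhouse growth, treated species and controls were compared by eye.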

[2] = test system: ducksalad (Heteranthera limosa); assay: Test B flooded paddy test, plant response rating; conditions: 250 g ai/ha; Flood; scale of 0 to 100 where 0 is no effect and 100 is complete control; 13 to 15 days
Method in brief: as §1

rice (Oryza sativa) = assay: Test B flooded paddy test, plant response rating; conditions: 250 g ai/ha; Flood; scale of 0 to 100 where 0 is no effect and 100 is complete control; 13 to 15 days
Method in brief: as §1

[3] = test system: sedge, umbrella (small-flower umbrella sedge, Cyperus difformis); assay: Test B flooded paddy test, plant response rating; conditions: 250 g ai/ha; Flood; scale of 0 to 100 where 0 is no effect and 100 is complete control; 13 to 15 days
Method in brief: as §1

[4] = test system: blackgrass (Alopecurus myosuroides); assay: Test C preemergence, plant response rating; conditions: Preemergence
Method in brief: (§2)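 Both timings shared one formulation, a non-phytotoxic solvent mixture with surfactant, and a greenhouse period of 13 to 15 d. Preemergence used seeded loam/sand or silt loam soil, postemergence used 2 to 18 cm plants; visual ratings ran from 0 (no effect) to 100 (complete control).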

corn (Zea mays) = assay: Test C preemergence, plant response rating; conditions: Preemergence
Method in brief: as §2

[5] = test system: crabgrass, large (large crabgrass, Digitaria sanguinalis); assay: Test C preemergence, plant response rating; conditions: Preemergence
Method in brief: as §2

[6] = test system: foxtail, giant (giant foxtail, Setaria faberii); assay: Test C preemergence, plant response rating; conditions: Preemergence
Method in brief: as §2

[7] = test system: lambsquarters (Chenopodium album); assay: Test C preemergence, plant response rating; conditions: Preemergence
Method in brief: as §2

[8] = test system: morningglory (Ipomoea coccinea); assay: Test C preemergence, plant response rating; conditions: Preemergence
Method in brief: as §2

[9] = test system: nutsedge, yellow (yellow nutsedge, Cyperus esculentus); assay: Test C preemergence, plant response rating; conditions: Preemergence
Method in brief: as §2

[10] = test system: oilseed rape (Brassica napus); assay: Test C preemergence, plant response rating; conditions: Preemergence
Method in brief: as §2

[11] = test system: ragweed (common ragweed, Ambrosia elatior); assay: Test C preemergence, plant response rating; conditions: Preemergence
Method in brief: as §2

[12] = test system: ryegrass, Italian (Italian ryegrass, Lolium multiflorum); assay: Test C preemergence, plant response rating; conditions: Preemergence
Method in brief: as §2

soybean (Glycine max) = assay: Test C preemergence, plant response rating; conditions: Preemergence
Method in brief: as §2

[13] = test system: velvetleaf (Abutilon theophrasti); assay: Test C preemergence, plant response rating; conditions: Preemergence
Method in brief: as §2

[14] = test system: waterhemp (common waterhemp, Amaranthus rudis); assay: Test C preemergence, plant response rating; conditions: Preemergence
Method in brief: as §2

[15] = test system: wheat (winter wheat, Triticum aestivum); assay: Test C preemergence, plant response rating; conditions: Preemergence
Method in brief: as §2

[16] = test system: chickweed (common chickweed, Stellaria media); assay: Test C postemergence, plant response rating; conditions: for Chickweed plant response rating: scale 0 to 100 (0 no effect, 100 complete control)
Method in brief: as §2

[17] = test system: foxtail, giant (giant foxtail, Setaria faberii); assay: Test C postemergence, plant response rating; conditions: for Foxtail, Giant plant response rating: scale 0 to 100 (0 no effect, 100 complete control)
Method in brief: as §2

[18] = test system: morningglory (Ipomoea coccinea); assay: Test C postemergence, plant response rating; conditions: for Morningglory plant response rating: scale 0 to 100 (0 no effect, 100 complete control)
Method in brief: as §2

## O=C(CCCC(F)(F)F)c1c(Cl)cccc1Oc1ncc(Cl)cn1 [Compound 143]
[1]
  Plant response rating, Barnyardgrass: 50
[2]
  Plant response rating, Ducksalad: 90
Rice (Oryza sativa)
  Plant response rating, Rice: 40
[3]
  Plant response rating, Sedge, Umbrella: 90
[4]; 125 g ai/ha, scale of 0 to 100
  Plant response rating, Blackgrass: 75
[4]; 16 g ai/ha, scale 0 to 100
  Plant response rating, Blackgrass: 5
[4]; 31 g ai/ha, scale 0 to 100
  Plant response rating, Blackgrass: 75
[4]; 62 g ai/ha, scale 0 to 100
  Plant response rating, Blackgrass: 80
Corn (Zea mays); 125 g ai/ha, scale of 0 to 100
  Plant response rating, Corn: 20
Corn (Zea mays); 16 g ai/ha, scale 0 to 100
  Plant response rating, Corn: 5
Corn (Zea mays); 31 g ai/ha, scale 0 to 100
  Plant response rating, Corn: 0
Corn (Zea mays); 62 g ai/ha, scale 0 to 100
  Plant response rating, Corn: 0
[5]; 125 g ai/ha, scale of 0 to 100
  Plant response rating, Crabgrass, Large: 100
[5]; 16 g ai/ha, scale 0 to 100
  Plant response rating, Crabgrass, Large: 70
[5]; 31 g ai/ha, scale 0 to 100
  Plant response rating, Crabgrass, Large: 100
[5]; 62 g ai/ha, scale 0 to 100
  Plant response rating, Crabgrass, Large: 100
[6]; 125 g ai/ha, scale of 0 to 100
  Plant response rating, Foxtail, Giant: 100
[6]; 31 g ai/ha, scale 0 to 100
  Plant response rating, Foxtail, Giant: 98
[6]; 62 g ai/ha, scale 0 to 100
  Plant response rating, Foxtail, Giant: 100
[7]; 125 g ai/ha, scale of 0 to 100
  Plant response rating, Lambsquarters: 95
[7]; 31 g ai/ha, scale 0 to 100
  Plant response rating, Lambsquarters: 10
[7]; 62 g ai/ha, scale 0 to 100
  Plant response rating, Lambsquarters: 95
[8]; 125 g ai/ha, scale of 0 to 100
  Plant response rating, Morningglory: 25
[8]; 31 g ai/ha, scale 0 to 100
  Plant response rating, Morningglory: 0
[8]; 62 g ai/ha, scale 0 to 100
  Plant response rating, Morningglory: 5
[9]; 125 g ai/ha, scale of 0 to 100
  Plant response rating, Nutsedge, Yellow: 5
[9]; 31 g ai/ha, scale 0 to 100
  Plant response rating, Nutsedge, Yellow: 0
[9]; 62 g ai/ha, scale 0 to 100
  Plant response rating, Nutsedge, Yellow: 0
[10]; 125 g ai/ha, scale of 0 to 100
  Plant response rating, Oilseed Rape: 98
[10]; 31 g ai/ha, scale 0 to 100
  Plant response rating, Oilseed Rape: 5
[10]; 62 g ai/ha, scale 0 to 100
  Plant response rating, Oilseed Rape: 80
[11]; 125 g ai/ha, scale of 0 to 100
  Plant response rating, Ragweed: 5
[11]; 31 g ai/ha, scale 0 to 100
  Plant response rating, Ragweed: 0
[11]; 62 g ai/ha, scale 0 to 100
  Plant response rating, Ragweed: 0
[12]; 125 g ai/ha, scale of 0 to 100
  Plant response rating, Ryegrass, Italian: 45
[12]; 31 g ai/ha, scale 0 to 100
  Plant response rating, Ryegrass, Italian: 20
[12]; 62 g ai/ha, scale 0 to 100
  Plant response rating, Ryegrass, Italian: 30
Soybean (Glycine max); 125 g ai/ha, scale of 0 to 100
  Plant response rating, Soybean: 20
Soybean (Glycine max); 31 g ai/ha, scale 0 to 100
  Plant response rating, Soybean: 0
Soybean (Glycine max); 62 g ai/ha, scale 0 to 100
  Plant response rating, Soybean: 15
[13]; 125 g ai/ha, scale of 0 to 100
  Plant response rating, Velvetleaf: 70
[13]; 31 g ai/ha, scale 0 to 100
  Plant response rating, Velvetleaf: 10
[13]; 62 g ai/ha, scale 0 to 100
  Plant response rating, Velvetleaf: 40
[14]; 125 g ai/ha, scale of 0 to 100
  Plant response rating, Waterhemp: 100
[14]; 31 g ai/ha, scale 0 to 100
  Plant response rating, Waterhemp: 98
[14]; 62 g ai/ha, scale 0 to 100
  Plant response rating, Waterhemp: 100
[15]; 125 g ai/ha, scale of 0 to 100
  Plant response rating, Wheat: 0
[15]; 31 g ai/ha, scale 0 to 100
  Plant response rating, Wheat: 0
[15]; 62 g ai/ha, scale 0 to 100
  Plant response rating, Wheat: 0
[16]; 16 g ai/ha, scale of 0 to 100
  Plant response rating, Chickweed: 80
[16]; 31 g ai/ha, scale 0 to 100
  Plant response rating, Chickweed: 80
[16]; 62 g ai/ha
  Chickweed plant response rating: 85
[16]; 125 g ai/ha
  Chickweed plant response rating: 100
[17]; 16 g ai/ha, scale of 0 to 100
  Plant response rating, Foxtail, Giant: 20
[17]; 31 g ai/ha, scale 0 to 100
  Plant response rating, Foxtail, Giant: 10
[17]; 62 g ai/ha
  Foxtail, Giant plant response rating: 10
[17]; 125 g ai/ha
  Foxtail, Giant plant response rating: 25
[18]; 16 g ai/ha, scale of 0 to 100
  Plant response rating, Morningglory: 15
[18]; 31 g ai/ha, scale 0 to 100
  Plant response rating, Morningglory: 70
[18]; 62 g ai/ha
  Morningglory plant response rating: 50
[18]; 125 g ai/ha
  Morningglory plant response rating: 65
